Where “and” joins values, the source holds several entries; their conditions need not be identical. Equal entries are not always repeated.
Experiment: Plasma pharmacokinetics of tipifarnib, LCMS/MS, non-compartmental analysis
Format: in vivo, human
[1] = Day 1, 1200 mg, plasma, individual subjects 4-10
[2] = Day 1, 1400 mg, plasma, individual subjects 1-3
[3] = Day 5, 1200 mg bid, plasma, individual subjects 4-10

Structure (SMILES): Cn1cncc1[C@@](N)(c1ccc(Cl)cc1)c1ccc2c(c1)c(-c1cccc(Cl)c1)cc(=O)n2C [tipifarnib, Tipifarnib]
- Cmin [1]: 132 µg/L and 339 µg/L and 166 µg/L and 82 µg/L and 402 µg/L
- Tmax [1]: 3.0 h
- Cmin, low (Day 1, 1400 mg, plasma): 145 µg/L
- Cmin, median (Day 1, 1400 mg, plasma): 237 µg/L
- Cmin [2]: 329 µg/L and 145 µg/L
- Tmax [2]: 3.2 h
- AUC12h [3]: 4.815 µg·h/mL and 7.001 µg·h/mL and 7.787 µg·h/mL and 9.221 µg·h/mL
- Cmax [3]: 1880 ng/mL and 2490 ng/mL and 1020 ng/mL
- Cmin [3]: 97 µg/L and 204 µg/L and 234 µg/L and 283 µg/L and 166 µg/L and 113 µg/L and 101 µg/L
- Tmax [3]: 3.0 h and 3.1 h and 2.8 h
- Cmin (Day 5, 1400 mg bid, plasma, individual subjects 1-3): 781 µg/L and 170 µg/L
- tipifarnib accumulation between days 1 and 5 (at 1200 and 1400 mg bid): relatively modest
- AUC(0-t) (human, plasma, oral, 1200 mg, AUC12h, high, Day 1, 1200 mg, plasma): 15700 ng·h/mL
- AUC(0-t) (human, plasma, oral, 1200 mg, AUC12h, high, Day 5, 1200 mg bid, plasma): 14200 ng·h/mL
- AUC(0-t) (human, plasma, oral, 1200 mg, AUC12h, low, Day 1, 1200 mg, plasma): 3240 ng·h/mL
- AUC(0-t) (human, plasma, oral, 1200 mg, AUC12h, low, Day 5, 1200 mg bid, plasma): 4620 ng·h/mL
- AUC(0-t) (human, plasma, oral, 1200 mg, AUC12h, median, Day 1, 1200 mg, plasma): 4740 ng·h/mL
- AUC(0-t) (human, plasma, oral, 1200 mg, AUC12h, median, Day 5, 1200 mg bid, plasma): 7370 ng·h/mL
- Cmax (human, plasma, oral, 1200 mg, Cmax, high, Day 1, 1200 mg, plasma): 3160 ng/mL
- Cmax (human, plasma, oral, 1200 mg, Cmax, high, Day 5, 1200 mg bid, plasma): 2500 ng/mL
- Cmax (human, plasma, oral, 1200 mg, Cmax, low, Day 1, 1200 mg, plasma): 404 ng/mL
- Cmax (human, plasma, oral, 1200 mg, Cmax, low, Day 5, 1200 mg bid, plasma): 762 ng/mL
- Cmax (human, plasma, oral, 1200 mg, Cmax, median, Day 1, 1200 mg, plasma): 906 ng/mL
- Cmax (human, plasma, oral, 1200 mg, Cmax, median, Day 5, 1200 mg bid, plasma): 1210 ng/mL
- concentration at 5 day (human, plasma, oral, 1200 mg, Cmin, high, Day 5, 1200 mg bid, plasma): 283 ng/mL
- concentration at 5 day (human, plasma, oral, 1200 mg, Cmin, low, Day 5, 1200 mg bid, plasma): 97 ng/mL
- concentration at 5 day (human, plasma, oral, 1200 mg, Cmin, median, Day 5, 1200 mg bid, plasma): 166 ng/mL
- Tmax (human, plasma, oral, 1200 mg, Tmax, high, Day 1, 1200 mg, plasma): 3 h
- Tmax (human, plasma, oral, 1200 mg, Tmax, high, Day 5, 1200 mg bid, plasma): 5 h
- Tmax (human, plasma, oral, 1200 mg, Tmax, low, Day 1, 1200 mg, plasma): 2 h
- Tmax (human, plasma, oral, 1200 mg, Tmax, low, Day 5, 1200 mg bid, plasma): 1 h
- Tmax (human, plasma, oral, 1200 mg, Tmax, median, Day 1, 1200 mg, plasma): 2.1 h
- Tmax (human, plasma, oral, 1200 mg, Tmax, median, Day 5, 1200 mg bid, plasma): 3 h
- AUC(0-t) (human, plasma, oral, 1400 mg, AUC12h, high, Day 1, 1400 mg, plasma): 18700 ng·h/mL
- AUC(0-t) (human, plasma, oral, 1400 mg, AUC12h, high, Day 5, 1400 mg bid, plasma): 25600 ng·h/mL
- AUC(0-t) (human, plasma, oral, 1400 mg, AUC12h, low, Day 1, 1400 mg, plasma): 8950 ng·h/mL
- AUC(0-t) (human, plasma, oral, 1400 mg, AUC12h, low, Day 5, 1400 mg bid, plasma): 8710 ng·h/mL
- AUC(0-t) (human, plasma, oral, 1400 mg, AUC12h, median, Day 1, 1400 mg, plasma): 13800 ng·h/mL
- AUC(0-t) (human, plasma, oral, 1400 mg, AUC12h, median, Day 5, 1400 mg bid, plasma): 17100 ng·h/mL
- Cmax (human, plasma, oral, 1400 mg, Cmax, high, Day 1, 1400 mg, plasma): 4240 ng/mL
- Cmax (human, plasma, oral, 1400 mg, Cmax, high, Day 5, 1400 mg bid, plasma): 3890 ng/mL
- Cmax (human, plasma, oral, 1400 mg, Cmax, low, Day 1, 1400 mg, plasma): 1690 ng/mL
- Cmax (human, plasma, oral, 1400 mg, Cmax, low, Day 5, 1400 mg bid, plasma): 1370 ng/mL
- Cmax (human, plasma, oral, 1400 mg, Cmax, median, Day 1, 1400 mg, plasma): 3920 ng/mL
- Cmax (human, plasma, oral, 1400 mg, Cmax, median, Day 5, 1400 mg bid, plasma): 2630 ng/mL
- concentration at 12 h (human, plasma, oral, 1400 mg, Cmin, high, Day 1, 1400 mg, plasma): 329 ng/mL
- concentration at 5 day (human, plasma, oral, 1400 mg, Cmin, high, Day 5, 1400 mg bid, plasma): 781 ng/mL
- concentration at 5 day (human, plasma, oral, 1400 mg, Cmin, low, Day 5, 1400 mg bid, plasma): 170 ng/mL
- concentration at 5 day (human, plasma, oral, 1400 mg, Cmin, median, Day 5, 1400 mg bid, plasma): 476 ng/mL
- Tmax (human, plasma, oral, 1400 mg, Tmax, high, Day 1, 1400 mg, plasma): 3.2 h
- Tmax (human, plasma, oral, 1400 mg, Tmax, high, Day 5, 1400 mg bid, plasma): 5 h
- Tmax (human, plasma, oral, 1400 mg, Tmax, low, Day 1, 1400 mg, plasma): 2 h
- Tmax (human, plasma, oral, 1400 mg, Tmax, low, Day 5, 1400 mg bid, plasma): 3 h
- Tmax (human, plasma, oral, 1400 mg, Tmax, median, Day 1, 1400 mg, plasma): 3.1 h
- Tmax (human, plasma, oral, 1400 mg, Tmax, median, Day 5, 1400 mg bid, plasma): 4 h
- AUC(0-t) (human, plasma, oral, median AUC12h, remaining patients, day 1): 7580 ng·h/mL
- AUC(0-t) (human, plasma, oral, median AUC12h, remaining patients, day 5): 4320 ng·h/mL
- AUC(0-t) (human, plasma, oral, median AUC12h, two patients with decreased blasts, day 1): 16300 ng·h/mL
- AUC(0-t) (human, plasma, oral, median AUC12h, two patients with decreased blasts, day 5): 13200 ng·h/mL
- Cmax (human, plasma, oral, median Cmax, remaining patients, day 1): 1290 ng/mL
- Cmax (human, plasma, oral, median Cmax, remaining patients, day 5): 881 ng/mL
- Cmax (human, plasma, oral, median Cmax, two patients with decreased blasts, day 1): 2440 ng/mL
- Cmax (human, plasma, oral, median Cmax, two patients with decreased blasts, day 5): 2550 ng/mL
- fold higher median AUC and Cmax in the two patients with decreased blasts vs median of the non-responders (on both day 1 and day 5): 2–3 fold
- pharmacokinetic behavior (dose linearity) (present data taken together with earlier studies): linear up to doses as high as 1400 mg bid

— PMC3165084 (Leukemia, 2011)
